{"source": "patent US11033518B2", "about": "“Pharmaceutical composition containing niclosamide for treating axin-GSK3 interaction-related diseases” (BAOBAB PHARM CO., LTD., priority 2017, dated 2021)", "key": {"Snail expression by CagA": {"system": "Snail expression by CagA", "test": "Snail expression induced by CagA in the 293 cell", "type": "cell-based", "excerpt": "(§1) In view of the results of Examples 2˜5 that niclosamide inhibited Wnt activity and EMT through Axin-GSK3 inhibition, and that CagA of Helicobacter (Helicobacter pylori) bound to GSK-3 similarly to Axin, the effect of GSK-3 binding and Snail induction by CagA of Helicobacter pylori by niclosamide was confirmed. It was confirmed that binding of CagA and GSK3 was inhibited by niclosamide similarly to Axin 2, when examining with immunoprecipitation after adding various amounts of niclosamide to this sample (FIG. 10A). In addition, it could be seen that Snail expression by CagA was inhibited when treating niclosamide after inducing CagA and Snail expression in the 293 cell (FIG. 10B). Through such a result, it could be seen that niclosamide inhibited the function of CagA performing function similar to Axin and thereby inhibited gastric cancer occurrence and inflammation by Helicobacter."}, "[1]": {"system": "TCF/LEF transcriptional activity", "test": "TCF/LEF reporter (Topflash) dual luciferase assay in colorectal cancer cells", "type": "cell-based", "details": "0, 0.125, 0.25, 0.5 nM; as concentration increased", "description": "At first, after treating niclosamide of nM units at concentrations of 0 nM, 0.125 nM, 0.25 nM and 0.5 nM to colorectal cancer cells for 24 hours, the beta-catenin (β-catenin) activity and TCF/LEF reporter (Topflash) activity of colorectal cancer cells were measured.\nThe TCF/LEF transcriptional activity was carried out by transformation with 100 ng of a reporter gene and 1 ng of transfection control pRL-SV40-Renilla. The reporter activity was measured with a dual luciferase assay system (Promega) in 48 hours after infection, and was standardized by measuring the co-transformed renilla activity, and the reporter gene activity was represented by light units in proportion to light units obtained from the negative control group."}, "intestinal adenoma": {"system": "intestinal adenoma", "test": "Adenoma formation in APC-MIN mice model", "type": "in vivo", "description": "In addition, in order to confirm the therapeutic effect of niclosamide in vivo, the effect of niclosamide affecting on adenoma formation in APC-MIN (multiple intestinal neoplasia, APCΔ850) mice model was confirmed.\nAPC-MIN mice were prepared by crossbreeding of wild-type C57BL/6J (APC+/+) females and MIN C57BL/6J (APCMin/+) males, and APC-MIN descendants were randomly assigned in subgroups at 3 weeks age by identifying with PCR-based assay. A vehicle or niclosamide (50 mg/kg) was intraperitoneally injected daily (6 days/week), and mice were observed daily, and the weight was measured twice a week. After the end of 14 weeks, mice were sacrificed and the whole intestine was collected and intestinal flakes were opened longitudinally with scissors, and were washed with saline and were unfolded, and then tissues were obtained. The tissues were fixed with 10% formalin for 24 hours and were washed with 70% alcohol. The fixed intestinal tissues were observed using a stereomicroscope, and the size of adenoma (small, <1 mm; medium 1˜3 mm; large >3 mm) was discriminated and counted for each mouse. In case of oral administration, APC-MIN mice ingested niclosamide mixed with 15% sugar gel vehicle daily (6 days/week) for 14 weeks. The number and size of adenoma were measured with a stereomicroscope."}, "[2]": {"system": "GSK3, β-catenin and Snail", "test": "Immunoblotting of nucleo-cytoplasm fractions of colorectal cancer cells", "type": "cell-based", "details": "0.25 nM, 24 hours, HCT116, SW480 and DLD-1", "description": "After treating niclosamide of 0.25 nM to colorectal cancer cell lines HCT116, SW480 and DLD-1 cells for 24 hours, the amount of GSK3, β-catenin and Snail of nucleo-cytoplasm fractions was analyzed by immunoblotting.\nThe amount of Snail and GSK3 protein in cells was confirmed by separating nuclei and cytoplasm in the hypotonic solution (Kim N H, et al., Sci Signal. 4:ra71, 2011; Yook J I, et al. Nat Cell Biol., 8:[…], 2006). Briefly, after collecting colorectal cancer cells (1×10^6 cells) in a centrifugation tube, they were washed with PBS and were treated with the hypotonic solution (10 mM HEPES, pH7.9; 10 mM KCl; 1 mM DTT with protease inhibitors) 400 μl on ice for 5 minutes. The cell membrane was degraded by addition of 10% NP-40, and the final concentration was adjusted to 0.6% final concentration, and then was mixed well and high-speed centrifugation was conducted for 30 seconds. The cytoplasmic resolvents were separated and nuclear precipitates were washed with cold PBS twice. The nucleoprotein was extracted by treating hypertonic buffer (20 mM HEPES, pH7.9; 0.4 M NaCl; 1 mM DTT with protease inhibitors) on ice for 15 minutes, and then high-speed centrifugation was conducted, and the amount of GSK3, β-catenin and Snail of nucleo-cytoplasm fractions was analyzed by immunoblotting."}, "[3]": {"system": "HCT116, SW480 and DLD-1 cells", "test": "Cell mobility of colorectal cancer cells through basement membrane", "type": "cell-based", "details": "nM level, 48 hours", "description": "At first, the effect on the cell mobility of colorectal cancer cells of niclosamide was confirmed. Colorectal cancer cell lines HCT116, SW480 and DLD-1 cells were cultured under the condition with or without niclosamide for 48 hours, and then the upper part of the membrane was rubbed with a cotton swab and the number of movements of cells inserted into the basement membrane was stained with 0.25% crystal violet and counted. Cells were counted in five random fields."}, "[4]": {"target": "Helicobacter pylori CagA - GSK3 binding (Homo sapiens, UniProt P49841)", "sequence (P49841 whole entry)": "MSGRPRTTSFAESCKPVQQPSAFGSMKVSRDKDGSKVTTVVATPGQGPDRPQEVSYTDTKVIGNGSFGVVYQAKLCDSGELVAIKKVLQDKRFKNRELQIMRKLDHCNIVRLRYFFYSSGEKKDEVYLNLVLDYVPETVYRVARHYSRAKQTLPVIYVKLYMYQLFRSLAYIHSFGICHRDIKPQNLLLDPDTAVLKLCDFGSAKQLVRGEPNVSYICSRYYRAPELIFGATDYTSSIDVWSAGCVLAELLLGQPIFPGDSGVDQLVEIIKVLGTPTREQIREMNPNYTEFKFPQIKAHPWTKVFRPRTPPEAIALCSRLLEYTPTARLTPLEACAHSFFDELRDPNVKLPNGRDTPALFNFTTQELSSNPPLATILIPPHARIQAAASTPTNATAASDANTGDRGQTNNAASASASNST", "test": "Immunoprecipitation of CagA and GSK3", "details": "various amounts", "excerpt": "as §1"}, "[5]": {"details": "orally administered for 14 weeks"}}, "data": [{"smiles": "O=C(Nc1ccc([N+](=O)[O-])cc1Cl)c1cc(Cl)ccc1O", "note": "[niclosamide]", "values": [{"measurement": "Snail expression by CagA", "setting": "Snail expression by CagA", "result": "inhibited"}, {"measurement": "TCF/LEF transcriptional activity", "setting": "[1]", "result": "reduced"}, {"measurement": "body weight", "setting": "intestinal adenoma; intraperitoneal 50 mg/kg daily, 14 weeks", "result": "did not change"}, {"measurement": "intestinal adenoma", "setting": "intestinal adenoma; intraperitoneal 50 mg/kg daily, at 14 weeks", "result": "significantly reduced"}, {"measurement": "condition of experimental animal", "setting": "intestinal adenoma; [5]", "result": "stable during the drug treatment"}, {"measurement": "intestinal adenoma formation", "setting": "intestinal adenoma; [5]", "result": "significantly inhibited"}, {"measurement": "GSK3 of nuclei", "setting": "[2]", "result": "increased"}, {"measurement": "amount of Snail", "setting": "[2]", "result": "reduced"}, {"measurement": "amount of beta-catenin", "setting": "[2]", "result": "reduced"}, {"measurement": "potential of movements of colorectal cancer cells", "setting": "[3]", "result": "largely reduced"}, {"measurement": "binding of CagA and GSK3", "setting": "[4]", "result": "inhibited"}]}]}
